The record followed here is patent US20230145305A1, “COMPOUNDS USEFUL AS KINASE INHIBITORS” (Fochon Biosciences, Ltd., priority 2020, published 2023).

Molecules are shown by their SMILES.

The test system of the first assay is OCI-LY10 cells. Put plainly: Cell proliferation assay (MTS) in OCI-LY10 cells. The assay is classed as cell-based. Particulars: Homo sapiens, OCI-Ly10, 72 h, read-out: OCI-LY10 IC50 (nM). The source says:
MTS testing kit was purchased from Promega (Madison, Wis., USA). The RPMI-1640, Fetal bovine serum and Penicillin-Streptomycin were purchased from BI (Biological Industries, Beit Haemek, Israel). Dimethyl sulfoxide (DMSO) was purchased from Sigma (St. Louis., Mo., USA). […] To investigate whether a compound is able to inhibit the activity of BTK in cells, a mechanism-based assay using OCI-LY10 cells was developed. In this assay, inhibition of BTK was detected by the inhibition of OCI-LY10 cells proliferation. Cells were plated into 96-well plates at a density of 10000 cells/well. Plates were incubated at 37° C., with 5% CO2 for 4 h. […] Plates were incubated at 37° C., with 5% CO2 for 72 h. 20 μl MTS was added into each well and the plates were incubated at 37° C., with 5% CO2 for exactly 2 h. The absorbance was measured by a microplate reader at 490 nm. IC50 was calculated using GraphPad Prism 5.0 software. Select compounds prepared as described above were assayed according to the biological procedures described herein.
In the case of `COc1ccc(F)cc1C(=O)NCc1ccc(-c2nc(C3CCCC3)n3ncnc(N)c23)cc1` [Example 12, N-(4-(4-amino-7-cyclopentylimidazo [5,1-f][1,2,4]triazin-5-yl)benzyl)-5-fluoro-2-methoxybenzamide], the IC50 stood at 9 nM.

Still in this assay, the particulars now being: Homo sapiens; inhibition of OCI-LY10 cells proliferation, 72 h incubation, MTS, absorbance at 490 nm; read-out: OCI-LY10 IC50.
Consider `COc1ccc(F)cc1C(=O)NCc1ccc(-c2nc(C3CCCC3)n3ccnc(N)c23)cc1` [Example 13, N-(4-(8-amino-3-cyclopentylimidazo [l,5-a]pyrazin-1-yl)benzyl)-5-fluoro-2-methoxybenzamide], for which the IC50 was found to be 2 nM. Still for that read-out and setting: next, `COc1ccc(F)cc1C(=O)NCc1ccc(-n2nc(C3CCCC3)c3ccnc(N)c32)cc1` [Example 14, N-(4-(7-amino-3-cyclopentyl-1H-pyrazolo [3,4-c]pyridin-1-yl)benzyl)-5-fluoro-2-methoxybenzamide]: 85 nM. The same measure, in the same setting: next, `COc1ccc(F)cc1C(=O)NCc1ccc(-n2nc(C3CCCC3)c3c(=O)[nH]nc(N)c32)cc1` [Example 16, N-(4-(7-amino-3-cyclopentyl-4-oxo-4,5-dihydro-1H-pyrazolo[3,4-d]pyridazin-1-yl)benzyl)-5-fluoro-2-methoxybenzamide]: 1 nM. Still for that read-out and setting: next, `COc1ccc(F)cc1C(=O)NCc1ccc(-n2cc(C3CCCC3)c3ncnc(N)c32)cc1` [Example 18, N-(4-(4-amino-7-cyclopentyl-5H-pyrrolo [3,2-d]pyrimidin-5-yl)benzyl)-5-flu oro-2-methoxybenzamide]: 1 nM; `COc1ccc(F)cc1C(=O)NCc1ccc(-n2c(=O)n(C3CCCC3)c3ccnc(N)c32)cc1` [Example 22, N-(4-(4-amino-1-cyclopentyl-2-oxo-1,2-dihydro-3H-imidazo[4,5-c]pyridin-3-yl)benzyl)-5-fluoro-2-methoxybenzamide]: 44 nM; `COc1ccc(F)cc1C(=O)NCc1ccc(-n2cc(C3CCCCC3)c3c(=O)[nH]nc(N)c32)cc1` [Example 27, N-(4-(7-amino-3-cyclohexyl-4-oxo-4,5-dihydro-1H-pyrrolo[2,3-d]pyridazin-1-yl)benzyl)-5-fluoro-2-methoxybenzamide]: 1 nM.

On to `COc1ccc(F)cc1C(=O)NCc1ccc(-c2cn(C3CCCC3)c3c(=O)[nH]nc(N)c23)cc1F` [Example 30, N-(4-(4-amino-1-cyclopentyl-7-oxo-6,7-dihydro-1H-pyrrolo[2,3-d]pyridazin-3-yl)-2-fluorobenzyl)-5-fluoro-2-methoxybenzamide], for which the IC50 stood at 1 nM. Consider `COc1ccc(F)cc1C(=O)NCc1ccc(-c2cn(C3CCCC3)c3c(=O)[nH]nc(N)c23)c(F)c1` [Example 31, N-(4-(4-amino-1-cyclopentyl-7-oxo-6,7-dihydro-1H-pyrrolo[2,3-d]pyridazin-3-yl)-3-fluorobenzyl)-5-fluoro-2-methoxybenzamide], for which the half-inhibitory concentration (IC50) is 1 nM. `COc1ccc(F)cc1C(=O)NCc1ccc(-c2cn(C3CC3)c3c(=O)[nH]nc(N)c23)cc1` [Example 34, N-(4-(4-amino-1-cyclopropyl-7-oxo-6,7-dihydro-1H-pyrrolo[2,3-d]pyridazin-3-yl)benzyl)-5-fluoro-2-methoxybenzamide]: the IC50 was 4 nM.

In the case of `COc1ccc(F)cc1C(=O)NCc1ccc(-c2cn(C3CCCCC3)c3c(=O)[nH]nc(N)c23)cc1` [Example 35, N-(4-(4-amino-1-cyclohexyl-7-oxo-6,7-dihydro-1H-pyrrolo[2,3-d]pyridazin-3-yl)benzyl)-5-fluoro-2-methoxybenzamide], the IC50 was found to be 1 nM.

`COc1ccc(F)cc1C(=O)NCc1ccc(-c2cn(C3CCC3)c3c(=O)[nH]nc(N)c23)cc1` [Example 36, N-(4-(4-amino-1-cyclobutyl-7-oxo-6,7-dihydro-1H-pyrrolo[2,3-d]pyridazin-3-yl)benzyl)-5-fluoro-2-methoxybenzamide]: the IC50 was determined as 1 nM. For `COc1ccc(F)cc1C(=O)NCc1ccc(-c2cn(C3CCOCC3)c3c(=O)[nH]nc(N)c23)cc1` [Example 37, N-(4-(4-amino-7-oxo-1-(tetrahydro-2H-pyran-4-yl)-6,7-dihydro-1H-pyrrolo [2,3-d]pyridazin-3-yl)benzyl)-5-fluoro-2-methoxybenzamide], the IC50 was 9 nM.

For the compound `COc1ccc(F)cc1C(=O)NCc1ccc(-c2cn(C3CCCC3(C)O)c3c(=O)[nH]nc(N)c23)cc1` (stereo not drawn) [Example 38, N-(4-(4-amino-1-(2-hydroxy-2-methylcyclopentyl)-7-oxo-6,7-dihydro-1H-pyrrolo[2,3-d]pyridazin-3-yl)benzyl)-5-fluoro-2-methoxybenzamide], the IC50 is 35 nM.

For `COc1ccc(F)cc1C(=O)NCc1ccc(-c2nn([C@@H](C)C(F)(F)F)c3c(=O)[nH]nc(N)c23)cc1` [Example 40a, (S)-N-(4-(4-amino-7-oxo-1-(1,1,1-trifluoropropan-2-yl)-6,7-dihydro-1H-pyrazolo[3,4-d]pyridazin-3-yl)benzyl)-5-fluoro-2-methoxybenzamide], the concentration for half-maximal inhibition (IC50) is 7 nM. `COc1ccc(F)cc1C(=O)NCc1ccc(-c2nn([C@H](C)C(F)(F)F)c3c(=O)[nH]nc(N)c23)cc1` [Example 40b, (R)-N-(4-(4-amino-7-oxo-1-(1,1,1-trifluoropropan-2-yl)-6,7-dihydro-1H-pyrazolo[3,4-d]pyridazin-3-yl)benzyl)-5-fluoro-2-methoxybenzamide]: the IC50 came out at 83 nM. For `COc1ccc(F)cc1C(=O)NCc1ccc(-n2nc(C(C)C(F)(F)F)c3c(=O)[nH]nc(N)c32)cc1` (stereo not drawn) [Example 41, N-(4-(7-amino-4-oxo-3-(1,1,1-trifluoropropan-2-yl)-4,5-dihydro-1H-pyrazolo[3,4-d]pyridazin-1-yl)benzyl)-5-fluoro-2-methoxybenzamide], the half-inhibitory concentration (IC50) was 18 nM.

Turning to `COc1ccc(F)cc1C(=O)NCc1ccc(-c2cn(C3CCCC3)c3c(=O)[nH]nc(N)c23)cn1` [Example 45, N-((5-(4-amino-1-cyclopentyl-7-oxo-6,7-dihydro-1H-pyrrolo[2,3-d]pyridazin-3-yl)pyridin-2-yl)methyl)-5-fluoro-2-methoxybenzamide], the IC50 came out at 32 nM. Still for that read-out and setting: next, `COc1ccc(F)cc1C(=O)NCc1ccc(-c2cn([C@@H]3CCN(C(=O)C4CC4)C3)c3c(=O)[nH]nc(N)c23)cc1` [Example 48, (R)-N-(4-(4-amino-1-(1-(cyclopropanecarbonyl)pyrrolidin-3-yl)-7-oxo-6,7-dihydro-1H-pyrrolo[2,3-d]pyridazin-3-yl)benzyl)-5-fluoro-2-methoxybenzamide]: 48 nM; `COC(=O)N1CC[C@@H](n2cc(-c3ccc(CNC(=O)c4cc(F)ccc4OC)cc3)c3c(N)n[nH]c(=O)c32)C1` [Example 49, methyl (R)-3-(4-amino-3-(4-((5-fluoro-2-methoxybenzamido)methyl)phenyl)-7-oxo-6,7-dihydro-1H-pyrrolo[2,3-d]pyridazin-1-yl)pyrrolidine-1-carboxylate]: 9 nM. Still for that read-out and setting: next, `COc1ccc(F)cc1C(=O)NCc1ccc(-c2cn([C@@H]3CCN(S(C)(=O)=O)C3)c3c(=O)[nH]nc(N)c23)cc1` [Example 50, (R)-N-(4-(4-amino-1-(1-(methylsulfonyl)pyrrolidin-3-yl)-7-oxo-6,7-dihydro-1H-pyrrolo[2,3-d]pyridazin-3-yl)benzyl)-5-fluoro-2-methoxybenzamide]: 19 nM.

For orientation: IC50 means the concentration that inhibits the measured activity by half.
